Measurements from PubChem BioAssay (NCI).
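Assay format: 96-well plates, 48-hour exposure. GI50 marks 50% less growth. At the TGI there is no net growth.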

Assays:
Experiment in all cases: NCI-60 cell line screen, 48 h
[1] = test system: CAKI-1 renal
[2] = test system: HS 578T breast
[3] = test system: HCT-116 colon
[4] = test system: OVCAR-4 ovarian
[5] = test system: U251 CNS
[6] = test system: UACC-257 melanoma
[7] = test system: MDA-MB-435
[8] = test system: NCI/ADR-RES ovarian
[9] = test system: SNB-75 CNS
[10] = test system: MALME-3M melanoma

## COc1cc(/C=C2\CN(S(=O)(=O)c3ccc(C)cc3)C/C(=C\c3cc(CN4CCCC4)c(O)c(OC)c3)C2=O)cc(CN2CCCC2)c1O
[1]
  GI50: 1760 nM
  TGI: 3280 nM
[2]
  GI50: 2730 nM
  TGI: 7720 nM
[3]
  GI50: 848 nM
  TGI: 2210 nM
[4]
  GI50: 1340 nM
  TGI: 2690 nM
[5]
  GI50: 820 nM
  TGI: 2340 nM
[6]
  GI50: 1530 nM
  TGI: 3170 nM
[7]
  GI50: 1530 nM
  TGI: 2970 nM
[8]
  GI50: 12000 nM
  TGI: > 100000 nM
[9]
  GI50: 1100 nM
  TGI: 2560 nM
[10]
  GI50: 1710 nM
  TGI: 3300 nM
